Experimental data: ChEMBL document CHEMBL5331108, “Design and Synthesis of 4-Fluorophenyl-5-methylene-2(5H)-furanone Derivatives as Potent Quorum Sensing Inhibitors” (J Med Chem, 2023)
Active and inactive are the calls of the source. No cut-off for these calls is given here.

Experiments:
Pseudomonas aeruginosa [1] = test: Antibacterial activity against Pseudomonas aeruginosa 27853 assessed as inhibition of bacterial growth at 0.4 ug/ml incubated for 24 hrs by absorbance based microplate reader analysis relative to control; format: functional
Pseudomonas aeruginosa [2] = test: Antibacterial activity against Pseudomonas aeruginosa PAO1 assessed as inhibition of bacterial growth at 0.4 ug/ml incubated for 24 hrs by absorbance based microplate reader analysis relative to control; format: functional
Pseudomonas aeruginosa [3] = test: Antibacterial activity against Pseudomonas aeruginosa PAO1 assessed as inhibition of bacterial growth at […] incubated for 24 hrs by absorbance based microplate reader analysis relative to control; format: functional; settings: dose 3.2 µg/ml
Pseudomonas aeruginosa [4] = test: Antibacterial activity against Pseudomonas aeruginosa PAO1 assessed as inhibition of bacterial growth at 256 ug/ml measured after 25 hrs by absorbance based assay; format: functional, organism-based; settings: dose 256.0 µg/ml
Staphylococcus aureus [5] = test: Antibacterial activity against erthromycin-susceptible Staphylococcus aureus ATCC25923 assessed as inhibition of bacterial growth incubated for 20 hrs by CLSI protocol based microdilution method; format: functional
Pseudomonas aeruginosa [6] = test: Antibacterial activity against wild type Pseudomonas aeruginosa […] CGMCC1.12483 assessed as inhibition of bacterial growth incubated for 20 hrs by CLSI protocol based microdilution method; format: functional
[7] = Hemolytic activity in mouse red blood cells assessed as hemolysis rate at 512 ug/ml incubated for 1 hrs by microplate reader analysis relative to control; format: toxicity, cell-based, Erythrocyte; settings: red blood cells (erythrocytes), at 512 µg/mL, read-out: Activity
Pseudomonas aeruginosa [8] = test: Synergistic antibacterial activity against Pseudomonas aeruginosa 27853 assessed as inhibition of bacterial growth at 256 ug/ml incubated for 24 hrs in the presence of Clarithromycin by absorbance based microplate reader analysis relative to control; format: functional
Pseudomonas aeruginosa [9] = test: Synergistic antibacterial activity against Pseudomonas aeruginosa PAO1 assessed as inhibition of bacterial growth at 1 ug/ml incubated for 24 hrs in the presence of Clarithromycin by absorbance based microplate reader analysis relative to control; format: functional
Pseudomonas aeruginosa [10] = test: Synergistic antibacterial activity against Pseudomonas aeruginosa 27853 assessed as inhibition of bacterial growth at 1 to 256 ug/ml incubated for 24 hrs in the presence of Ciprofloxacin by absorbance based microplate reader analysis; format: functional, organism-based; settings: dose 1-256 µg/ml
Pseudomonas aeruginosa [11] = test: Synergistic antibacterial activity against Pseudomonas aeruginosa PAO1 assessed as inhibition of bacterial growth at 1 to 256 ug/ml incubated for 24 hrs in the presence of ciprofloxacin by absorbance based microplate reader analysis; format: functional, organism-based; settings: dose 1-256 µg/ml
Escherichia coli = test: Antibacterial activity against penicillin-susceptible Escherichia coli ATCC25922 assessed as inhibition of bacterial growth incubated for 20 hrs by CLSI protocol based microdilution method; format: functional
Staphylococcus aureus [12] = test: Antibacterial activity against methicillin-resistant Staphylococcus aureus ATCC43300 assessed as inhibition of bacterial growth incubated for 20 hrs by CLSI protocol based microdilution method; format: functional
Bacillus subtilis = test: Antibacterial activity against penicillin-susceptible Bacillus subtilis ATCC9372 assessed as inhibition of bacterial growth incubated for 20 hrs by CLSI protocol based microdilution method; format: functional
Pseudomonas aeruginosa [13] = test: Synergistic antibacterial activity against Pseudomonas aeruginosa PAO1 assessed as inhibition of bacterial growth at 1 to 256 ug/ml incubated for 24 hrs in the presence of Clarithromycin by absorbance based microplate reader analysis; format: functional, organism-based; settings: dose 1-256 µg/ml
[14] = Inhibition of quorum sensing system in Pseudomonas aeruginosa PAO1 assessed as inhibition of pyocyanin production at 102.4 ug/ml incubated for 18 hrs by absorbance based assay; settings: dose 102.4 µg/ml
[15] = Inhibition of quorum sensing system in Pseudomonas aeruginosa PAO1 assessed as inhibition of rhamnolipid production at 102.4 ug/ml incubated for 24 hrs by absorbance based assay; settings: dose 102.4 µg/ml
Pseudomonas aeruginosa [16] = test: Synergistic antibacterial activity against Pseudomonas aeruginosa 27853 assessed as inhibition of bacterial growth at 64 ug/ml incubated for 24 hrs in the presence of Ciprofloxacin by absorbance based microplate reader analysis; format: functional
[17] = Inhibition of quorum sensing system in Pseudomonas aeruginosa PAO1 assessed as inhibition of protease activity at 102.4 ug/ml incubated for 24 hrs by absorbance based assay; settings: dose 102.4 µg/ml
Pseudomonas aeruginosa [18] = test: Synergistic antibacterial activity against Pseudomonas aeruginosa 27853 assessed as inhibition of bacterial growth incubated for 24 hrs in the presence of Clarithromycin by absorbance based microplate reader analysis; format: functional, organism-based; settings: dose 1-256 µg/ml
Pseudomonas aeruginosa [19] = test: Antibacterial activity against Pseudomonas aeruginosa 27853 assessed as inhibition of bacterial growth at 256 ug/ml measured after 25 hrs by absorbance based assay; format: functional, organism-based; settings: dose 256.0 µg/ml
Bacillus pumilus = test: Antibacterial activity against penicillin-susceptible Bacillus pumilus CMCC63202 assessed as inhibition of bacterial growth incubated for 20 hrs by CLSI protocol based microdilution method; format: functional
Pseudomonas aeruginosa [20] = test: Inhibition of biofilm formation in Pseudomonas aeruginosa PAO1 at 32 ug/ml incubated for 20 hrs by crystal violet staining based analysis; format: functional
Pseudomonas aeruginosa [21] = test: Synergistic antibacterial activity against Pseudomonas aeruginosa PAO1 assessed as inhibition of bacterial growth at 256 ug/ml incubated for 24 hrs in the presence of Clarithromycin by absorbance based microplate reader analysis relative to control; format: functional
Pseudomonas aeruginosa [22] = test: Antibacterial activity against penicillin-susceptible Pseudomonas aeruginosa ATCC27853 assessed as inhibition of bacterial growth incubated for 20 hrs by CLSI protocol based microdilution method; format: functional
[23] = Inhibition of quorum sensing system in Escherichia coli MG4/pKDT17 harboring lasR gene with lasB::lacZ translation fusion assessed as inhibition of lasR translation activation by measuring inhibition of […] activity incubated for 8 hrs by absorbance based analysis; settings: dose 32-128 µg/ml
[24] = Inhibition of quorum sensing system in Pseudomonas aeruginosa PAO1 transfected with rhlA-gfp reporter assessed as inhibition of fluorescence expression incubated for >=12 hrs by microplate reader analysis; settings: dose 32-256 µg/ml
[25] = Inhibition of quorum sensing system in Escherichia coli pEAL08-2 harboring pqsR gene with pqsA::lacZ translation fusion assessed as inhibition of pqsA translation activation by measuring inhibition of […] activity incubated for 8 hrs by absorbance based analysis; settings: dose 32-128 µg/ml
[26] = Inhibition of quorum sensing system in Pseudomonas aeruginosa PAO1 transfected with pqsA-gfp reporter assessed as inhibition of fluorescence expression incubated for >=12 hrs by microplate reader analysis; settings: dose 32-256 µg/ml
Pseudomonas aeruginosa [27] = test: Synergistic antibacterial activity against Pseudomonas aeruginosa 27853 assessed as inhibition of bacterial growth at 256 ug/ml incubated for 24 hrs in the presence of Ciprofloxacin by absorbance based microplate reader analysis relative to control; format: functional
[28] = Inhibition of quorum sensing system in Escherichia coli pDSY harboring rhlR gene with rhlA::lacZ translation fusion assessed as inhibition of rhlA translation activation by measuring inhibition of […] activity incubated for 8 hrs by absorbance based analysis; settings: dose 32-128 µg/ml
[29] = Inhibition of quorum sensing system in Pseudomonas aeruginosa PAO1 transfected with lasB-gfp reporter assessed as inhibition of fluorescence expression incubated for >=12 hrs by microplate reader analysis; settings: dose 32-256 µg/ml
[30] = Inhibition of quorum sensing system in Pseudomonas aeruginosa PAO1 transfected with gfp reporter gene assessed as effect on fluorescence expression at 32 to 256 ug/ml incubated for >=12 hrs by microplate reader analysis; settings: dose 32-256 µg/ml
Pseudomonas aeruginosa [31] = test: Synergistic antibacterial activity against Pseudomonas aeruginosa PAO1 assessed as inhibition of bacterial growth at highest concentration incubated for 24 hrs in the presence of ciprofloxacin by absorbance based microplate reader analysis relative to control; format: functional
Pseudomonas aeruginosa [32] = test: Synergistic antibacterial activity against Pseudomonas aeruginosa PAO1 assessed as inhibition of bacterial growth at 1 ug/ml incubated for 24 hrs in the presence of ciprofloxacin by absorbance based microplate reader analysis relative to control; format: functional
Pseudomonas aeruginosa [33] = test: Synergistic antibacterial activity against Pseudomonas aeruginosa PAO1 infected in Kunming mouse model assessed as reduction in viable bacteria at 25 mg/kg, ip pre-infected with bacteria for 1 hrs followed by compound administration and measured after 1 hrs in the presence of ciprofloxacin; format: functional, organism-based
Pseudomonas aeruginosa [34] = test: Antibacterial activity against Pseudomonas aeruginosa PAO1 assessed as inhibition of swarming movement at 25.6 to 102.4 ug/ml incubated for 24 hrs; format: functional, organism-based; settings: dose 25.6-102.4 µg/ml
Pseudomonas aeruginosa [35] = test: Inhibition of biofilm formation in Pseudomonas aeruginosa PAO1 assessed as effect on biofilm morphology at 102.4 ug/ml incubated for 24 hrs by scanning electron microscopic analysis; format: functional, organism-based; settings: dose 102.4 µg/ml

Compound | Activity (Pseudomonas aeruginosa [4]) | MIC (Staphylococcus aureus [5]) [µg/mL] | MIC (Pseudomonas aeruginosa [6]) [µg/mL] | hemolysis at 1 h, 512 ug/ml [7] [%] | inhibition at 256 µg/mL (Pseudomonas aeruginosa [8]) [%] | Activity (Pseudomonas aeruginosa [10]) | Activity (Pseudomonas aeruginosa [11]) | MIC (Escherichia coli) [µg/mL] | MIC (Staphylococcus aureus [12]) [µg/mL] | MIC (Bacillus subtilis) [µg/mL] | Activity (Pseudomonas aeruginosa [13]) | inhibition [14] [%] | inhibition [15] | inhibition [17] | Activity (Pseudomonas aeruginosa [18]) | Activity (Pseudomonas aeruginosa [19]) | MIC (Bacillus pumilus) [µg/mL] | MIC (Pseudomonas aeruginosa [22]) [µg/mL] | other results
O=C(O)c1cn(C2CC2)c2cc(N3CCNCC3)c(F)cc2c1=O [CIPROFLOXACIN] |  |  |  |  |  |  |  |  |  |  |  |  |  |  |  |  |  |  | inhibition at 0.4 µg/mL (Pseudomonas aeruginosa [1]): 26.2%; inhibition at 0.4 µg/mL (Pseudomonas aeruginosa [2]): 42.1%
C=C1OC(=O)C(CNC(=O)c2ccc(C)cc2)=C1c1ccc(F)cc1 | inactive | > 512 | > 512 | < 2.5 | 45.4 | Active | Active | > 512 | > 512 | > 512 | Active | 55.5 | Active | Active | Dose-Dependent Effect | inactive | > 512 | > 512 | inhibition at […] (Pseudomonas aeruginosa [3]): 44.6%; inhibition at 1 µg/mL (Pseudomonas aeruginosa [9]): 54%; inhibition at 64 µg/mL (Pseudomonas aeruginosa [16]): 13%; inhibition (Pseudomonas aeruginosa [20]; dose 32.0 µg/ml): Active; inhibition at 256 µg/mL (Pseudomonas aeruginosa [21]): 44.6%
C=C1OC(=O)C(CNC(=O)c2ccc(F)cc2)=C1c1ccc(F)cc1 | inactive | > 512 | > 512 | > 2.5 | 82.8 | Active | Active | > 512 | > 512 | > 512 | Active | 31.4 | Active | 30.6% | Dose-Dependent Effect | inactive | > 512 | > 512 | inhibition [23]: Dose-Dependent Effect; inhibition [24]: Dose-Dependent Effect; inhibition [25]: Dose-Dependent Effect; inhibition [26]: Dose-Dependent Effect; inhibition at 256 µg/mL (Pseudomonas aeruginosa [27]): 77.2%; inhibition [28]: Dose-Dependent Effect; inhibition [29]: Dose-Dependent Effect; inhibition [30]: inactive; inhibition (INH) (Pseudomonas aeruginosa [31]): 90.53%; inhibition at 1 µg/mL (Pseudomonas aeruginosa [32]): 60.5%; inhibition at 32 µg/mL (Pseudomonas aeruginosa [20]): 50.7%; Activity (Pseudomonas aeruginosa [33]): Active; Activity (Pseudomonas aeruginosa [34]): Active; inhibition (Pseudomonas aeruginosa [35]): Active
